Assay: Inhibition of cGAS in human THP-1 cells […] incubated for 18 hrs by Lucia luciferase reporter based counter assay

SMILES | IC50
C[C@@H]1CN2CC[C@H]1n1c(nc3cc(Cl)ccc31)O[C@H]1C[C@@H](C(=O)O)N(C1)c1nc(nc3c1oc1ccccc13)CCOCCCC2=O | > 10 µM
CC(=O)[C@@H]1C[C@H]2CN1c1nc(nc3c1oc1ccccc13)CCOCCCC(=O)N1CC[C@@H]([C@@H](C)C1)n1c(nc3cc(Cl)ccc31)O2 | > 10 µM
C[C@H]1CN2CC[C@@H]1n1c(nc3cc(Cl)ccc31)O[C@H]1C[C@@H](C(=O)O)N(C1)c1nc(nc3c1oc1cc(Cl)ccc13)CCOCCCC2=O | 9.5 µM
C[C@H]1CN2CC[C@@H]1n1c(nc3ccccc31)O[C@H]1C[C@@H](C(=O)O)N(C1)c1nc(nc3c1oc1ccccc13)C(F)(F)CCCCC(F)(F)C2=O | 6.6 µM
C[C@H]1CN2CC[C@@H]1n1c(nc3ccccc31)O[C@H]1C[C@@H](C(=O)O)N(C1)c1nc(nc3c1oc1cc(Cl)ccc13)C(F)(F)CCCOCC2=O | > 10 µM
Cc1cccc2c1nc1n2[C@@H]2CCN(C[C@H]2C)C(=O)CCCCCC(F)(F)c2nc(c3oc4ccccc4c3n2)N2C[C@H](C[C@H]2C(=O)O)O1 | 6 µM
C[C@H]1CN2CC[C@H]1n1c(nc3ccccc31)O[C@H]1C[C@@H](C(=O)O)N(C1)c1nc(nc3c1oc1ccccc13)C(F)(F)COCCCCC2=O | 14 µM
C[C@H]1CN2CC[C@@H]1n1c(nc3cc(Cl)ccc31)O[C@H]1C[C@@H](C(=O)O)N(C1)c1nc(nc3c1oc1ccccc13)C(F)(F)OCCCCC2=O | > 10 µM
C[C@@H]1CN2CC[C@H]1n1c(nc3ccccc31)O[C@H]1C[C@@H](C(=O)O)N(C1)c1nc(nc3c1oc1ccccc13)CCCCCOC2=O | 8.2 µM
C[C@H]1CN2CC[C@@H]1n1c(nc3ccccc31)O[C@H]1C[C@@H](C(=O)O)N(C1)c1nc(nc3c1oc1ccccc13)CCCCCN(C)C2=O | 7.3 µM

Reference: BindingDB's records for PubMed 39291025 (PI Health Sciences)
